Measured values published in US20250145676A1, “FUNCTIONAL EXPRESSION OF ECTOPIC TMC1 AND TMC2 IN HETEROLOGOUS CELLS” (The Hong Kong University of Science and Technology, priority 2023, published 2025).

Target: T1, Fyn-mTMC2-mCherry+mTMIE channel (Mus musculus, UniProt Q8R4P4)
T1 construct: expressed in transfected cells; host or cells: PK-HEK293T (PIEZO1-knockout HEK293T)
T1 sequence (Q8R4P4 1-888): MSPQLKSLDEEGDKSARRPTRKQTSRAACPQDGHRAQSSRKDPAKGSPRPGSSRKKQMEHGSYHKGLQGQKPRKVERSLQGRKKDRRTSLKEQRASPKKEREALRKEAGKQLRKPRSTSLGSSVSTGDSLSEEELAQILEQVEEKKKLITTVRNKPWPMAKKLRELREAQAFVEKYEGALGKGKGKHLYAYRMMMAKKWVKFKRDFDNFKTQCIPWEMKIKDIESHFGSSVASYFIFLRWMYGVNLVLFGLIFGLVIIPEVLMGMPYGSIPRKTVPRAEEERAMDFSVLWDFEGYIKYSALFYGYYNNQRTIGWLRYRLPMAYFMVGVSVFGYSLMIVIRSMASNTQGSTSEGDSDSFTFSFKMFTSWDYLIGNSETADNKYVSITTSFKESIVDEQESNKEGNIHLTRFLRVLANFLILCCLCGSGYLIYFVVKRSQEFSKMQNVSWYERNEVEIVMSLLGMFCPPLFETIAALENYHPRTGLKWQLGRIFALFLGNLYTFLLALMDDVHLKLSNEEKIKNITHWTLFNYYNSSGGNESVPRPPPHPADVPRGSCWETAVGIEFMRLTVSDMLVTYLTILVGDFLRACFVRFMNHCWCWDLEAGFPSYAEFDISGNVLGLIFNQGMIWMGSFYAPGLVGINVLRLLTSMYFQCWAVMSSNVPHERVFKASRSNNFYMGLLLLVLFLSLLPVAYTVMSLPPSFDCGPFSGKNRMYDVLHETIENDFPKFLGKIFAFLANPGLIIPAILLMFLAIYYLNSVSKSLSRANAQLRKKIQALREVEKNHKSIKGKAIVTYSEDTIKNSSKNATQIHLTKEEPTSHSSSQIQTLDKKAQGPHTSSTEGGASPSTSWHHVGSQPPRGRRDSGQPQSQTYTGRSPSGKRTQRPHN
T1 sequence (Q8K467 29-153 partner): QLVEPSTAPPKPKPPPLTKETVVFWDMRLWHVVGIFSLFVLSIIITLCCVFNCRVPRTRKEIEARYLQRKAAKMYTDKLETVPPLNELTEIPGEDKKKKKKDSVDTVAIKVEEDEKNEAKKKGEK
Assay: Whole-cell poking patch-clamp assay, DHS sensitivity of MS currents
Format: cell-based
Details: 2 mM DHS in the bath; PK-HEK293T cells co-expressing Fyn-mTMC2-mCherry and mTMIE; 4 experiments, p=0.0044
Protocol: Briefly, PK-HEK293T cells were incubated for 24 h after transfection before performing the whole-cell patch-clamp assay at room temperature. For co-transfection of two plasmids, the w/w ratio of TMC1/2 plasmids and TMIE plasmid was 3:1. The bath solution contained (in mM) 137 NaCl, 5.8 KCl, 0.7 NaH2PO4, 10 HEPES, 1.3 CaCl2, 0.9 MgCl2, 5.6 glucose (pH 7.3 with NaOH); the pipette solution contained (in mM) 137 CsCl, 0.1 EGTA, 10 HEPES, 3.5 MgCl2 (pH 7.3 with CsOH). The recording glass pipettes (1B150-4 Borosilicate Glass Capillaries, World Precision Instruments) were pulled and polished using a pipette puller (DMZ, Zeitz Instruments) and featured a resistance of 3-5 MQ. The mechanical stimulus was applied by poking cells with a fire-polished glass probe with a tip diameter of 2-3 μm. […] The reversal potentials were calculated using Vpipette at zero current with correction for the junction potential of the pipette and bath solutions (+1.2 mV for whole cell recording). Data were analyzed with Clampfit 10.7 (Molecular Devices). For the measurement of the inactivation time constant, all current responses, except for traces with a noticeable shift in baseline, were individually calculated and averaged.

For `CN[C@@H]1[C@H](O[C@H]2[C@H](O[C@H]3[C@H](O)[C@@H](O)[C@H](NC(=N)N)[C@@H](O)[C@@H]3NC(=N)N)O[C@@H](C)[C@]2(O)CO)O[C@@H](CO)[C@H](O)[C@H]1O` [DHS, dihydrostreptomycin], the “DHS-sensitivity of whole-cell MS currents” value was “DHS-sensitive”.
